In patent US8895746B2 (University of Central Florida Research Foundation, Inc., priority 2009, dated 2014):
Where “and” joins values, the source holds several entries; their conditions need not be identical. Equal entries are not always repeated.

Key:
[1] = system: mouse thymus epithelial stromal cells (TE71); test: CyQuant cell viability; type: cell-based
From the text: (§1) Aberrant Stat3 promotes malignant cell proliferation, survival and malignant transformation (10, 20, 42). Given that S3I201.1066 disrupts Stat3 activation, we asked the question whether this agent is able to selectively decrease the viability and growth of malignant cells that harbor aberrant Stat3 activity.

[2] = system: normal human pancreatic duct epithelial cells (HPDEC); test: CyQuant cell viability; type: cell-based
From the text: as §1

[3] = system: MDA-MB-231, Panc-1 and NIH3T3/v-Src cells; test: Wound healing assay for migration; type: cell-based, human, mouse
From the text: Wounds were made using pipette tips in monolayer cultures of cells in six-well plates. […] The migration of cells was visualized at a 10× magnification using an Axiovert 200 Inverted Fluorescence Microscope (Zeiss, Göttingen Germany), with pictures taken using a mounted Canon Powershot A640 digital camera (Canon USA, Lake Success, N.Y.). Cells that migrated into the denuded area were quantified. Mice and in vivo tumor studies-Six-week-old female athymic nude mice were purchased from Harlan and maintained in the institutional animal facilities approved by the American Association for Accreditation of Laboratory Animal Care. Athymic nude mice were injected subcutaneously in the left flank area with 5×10^6 human breast cancer MDA-MB-231 cells in 100 μL of PBS. After 5 to 10 days, tumors of a diameter of 3 mm were established. […] Tumor volume was calculated according to the formula V=0.52×a^2×b, where a, smallest superficial diameter, b, largest superficial diameter.

[4] = system: c-Myc, Bcl-xL, VEGF, and MMP-9 proteins; test: Immunoblotting of Stat3-regulated gene products in MDA-MB-231 and Panc-1 cells; type: cell-based, human; details: 48 h-treatment
Method: Immunoprecipitation from whole-cell lysates and SDS/PAGE and Western blotting analysis were performed as previously described (33,38).
Known Stat3 downstream target genes are key in the dysregulated biological processes promoted by aberrant Stat3 (9, 20, 42).

[5] = system: NIH3T3/v-Src, Panc-1 and MDA-MB-231 cells; test: Colony survival assay; type: cell-based, mouse, human; details: treated once
Method: This was performed as previously reported (39). […] Colonies were stained with crystal violet for 4 h and counted under phase-contrast microscope.
Cultured single-cells were untreated or treated once with S3I-201.1066 and allowed to grow until large colonies were visible, which were stained and enumerated.

Stat3 = Stat3 (Mus musculus, UniProt P42227); test: Fluorescence Polarization assay, Stat3 binding to 5-carboxyfluorescein-GpYLPQTV-NH2 probe; set-up: Coding regions for the murine Stat3 protein; made in house; host or cells: E. coli BL21(DE3); species or system murine; details: IC50, disruption of Stat3 binding to pTyr peptide probe, 150 nM Stat3, 10 nM probe
Stat3, sequence (P42227 whole entry, the tested form may be a part): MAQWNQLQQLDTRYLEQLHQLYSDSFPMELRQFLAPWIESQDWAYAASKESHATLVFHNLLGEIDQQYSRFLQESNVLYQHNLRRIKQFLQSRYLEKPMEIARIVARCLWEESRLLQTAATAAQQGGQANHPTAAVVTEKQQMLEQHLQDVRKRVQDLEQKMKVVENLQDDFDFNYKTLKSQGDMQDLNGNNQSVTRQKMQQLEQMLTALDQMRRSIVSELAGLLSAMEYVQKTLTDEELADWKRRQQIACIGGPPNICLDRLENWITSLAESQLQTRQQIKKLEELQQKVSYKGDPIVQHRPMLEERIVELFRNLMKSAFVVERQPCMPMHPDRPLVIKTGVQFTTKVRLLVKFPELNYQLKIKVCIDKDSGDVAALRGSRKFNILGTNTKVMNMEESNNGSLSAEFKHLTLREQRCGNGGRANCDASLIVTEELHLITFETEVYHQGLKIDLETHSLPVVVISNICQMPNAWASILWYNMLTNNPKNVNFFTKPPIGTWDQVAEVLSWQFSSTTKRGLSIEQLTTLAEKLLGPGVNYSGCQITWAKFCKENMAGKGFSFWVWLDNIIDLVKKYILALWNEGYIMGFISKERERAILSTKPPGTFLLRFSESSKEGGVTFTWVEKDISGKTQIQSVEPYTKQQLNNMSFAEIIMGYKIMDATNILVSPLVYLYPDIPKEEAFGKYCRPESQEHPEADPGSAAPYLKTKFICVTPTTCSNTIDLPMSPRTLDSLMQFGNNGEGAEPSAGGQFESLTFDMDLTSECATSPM
Method: Coding regions for the murine Stat3 protein and Stat3 SH2 domain were amplified by PCR and cloned into vectors pET-44 Ek/LIC (Novagen) and pET SUMO (Invitrogen), respectively.
Fluorescence Polarization (FP) Assay was conducted as previously reported (23), with some modification using the phospho-peptide, 5-carboxyfluorescein-GpYLPQTV-NH2 (phosphorylated SEQ ID NO:7) (where pY represents phospho-Tyr) as probe and Stat3. The FP assay was used to evaluate the binding of agents to Stat3 and to determine the ability to disrupt the Stat3:pTyr peptide interaction. A fixed concentration of the fluorescently-labeled peptide probe (10 nM) was incubated with increasing concentration of the Stat3 protein for 30 min at room temperature in the buffer, 50 mM NaCI, 10 mM HEPES, 1 mM EDTA, 0.1% Nonidet P-40, and the fluorescent polarization measurements were determined using the POLARstar Omega (BMG LABTECH, Durham, N.C.), with the set gain adjustment at 35 mP. The Z′ value was derived per the equation Z′=1−(3 SDbound+3 SD free)/(mPbound−mPfree), where SD is the standard deviation and mP is the average of fluorescence polarization. In the bound state, 10 nM 5-carboxyfluorescein-GpYLPQTV-NH2 (phosphorylated SEQ ID NO:7) was incubated with 150 nM purified Stat3 protein, while the free (unbound) state was the same mixture, but incubated with an additional 10 IJM unlabeled Ac-GpYLPQTV-NH2 (phosphorylated SEQ ID NO:7). For evaluating agents, Stat3 protein (150 nM) was incubated with serial concentrations of S31-201.1066 at 30° C. for 60 min in the indicated assay buffer conditions. Prior to the addition of the fluorescence probe, the protein:S31-201.1066 mixtures were allowed to equilibrate at room temperature for 15 min. Probe was added at a final concentration of 10 nM and incubated for 30 min at room temperature following which the FP measurements were taken using the POLARstar Omega, with the set gain adjustment at 35 mP.
The FP assay was used to further test the computational modeling prediction of the ability of S31-201.1066 to disrupt Stat3 interaction with its cognate pTyr peptide.

[6] = system: Stat3-dependent luciferase reporter (pLucTKS3); test: Stat3-dependent luciferase reporter in NIH3T3/v-Src; type: cell-based, mouse; details: NIH3T3/v-Src stably expressing pLucTKS3; 36-h treatment
From the text: Positions of STATs:DNA complexes or proteins in gel are labeled; control lanes (0) represent nuclear extracts treated with 0.05% DMSO, or nuclear extracts or whole-cell lysates prepared from 0.05% DMSO-treated cells. Data are representative of 3-4 independent determinations. **—<0.01;
Normal mouse fibroblasts (NIH3T3) and counterparts transformed by v-Src (NIH3T3/v-Src), v-Ras (NIH3T3/v-Ras) or overexpressing the human epidermal growth factor (EGF) receptor (NIH3T3/hEGFR), and the human breast cancer (MDA-MB-231) and pancreatic cancer (Panc-1) cells have all been previously reported (15,27-29). The normal human pancreatic duct epithelial cells (HPDEC) was a kind gift from Dr. Tsao, (OCI, UHN-PMH, Toronto) (30), Stat3 knockout mouse embryonic fibroblasts was generously provided by Dr. Poli (31), and the mouse thymic epithelial stromal cells (TE-71) was a generous gift from Dr. Farr (32). The Stat3dependent reporter, pLucTKS3 and the v-Src transformed mouse fibroblasts that stably express pLucTKS3 have been previously reported (15, 33). Cells were grown in Dulbecco's modified Eagle's medium (DMEM) containing 10% heat-inactivated fetal bovine serum, or in the case of HPDEC, they were grown in Keratinocyte-SFM media supplemented with 0.2 ng EGF, 30 μg/ml bovine pituitary extract and containing antimycol.

## Cc1ccc(S(=O)(=O)N(C)CC(=O)N(Cc2ccc(C3CCCCC3)cc2)c2ccc(C(=O)O)c(O)c2)cc1 [S3I-201.1066]
[1]
  derived IC60 values, viability: > 200 μMm
[2]
  derived IC60 values, viability: > 200 μMm
[3]; 30 µM
  numbers of cells migrating into the denuded area: statistically lower numbers
[3]; 12-24 h treatment
  numbers of cells migrating into the denuded area: Significantly reduced numbers
[3]; 12-24 h treatment, data not shown
  apoptosis of the treated cells: no evidence of apoptosis
[3]; 50 or 100 μM
  numbers of cells migrating into the denuded area: strongly reduced numbers
[4]
  expression of c-Myc, Bcl-xL, VEGF, and MMP-9 proteins: significantly suppressed
[5]
  number of colonies, colony survival: dose-dependent suppression
Stat3
  IC50: 45 µM and 23 µM and 20 µM
[6]
  induction of the Stat3-dependent reporter: significantly (p<0.01) repressed
